Experimental data published in ChEMBL document CHEMBL1131431, “Enantiospecific semisynthesis of (+)-almuheptolide-A, a novel natural heptolide inhibitor of the mammalian mitochondrial respiratory chain” (J Med Chem, 1998).

Biological target: Mitochondrial complex I; NADH oxidoreductase (Bos taurus, UniProt P25708+P52505)
Assay: Compound was tested for NADH oxidase activity in bovine heart submitochondrial particles
Assay type: protein-complex assay

Mitochondrial complex I; NADH oxidoreductase, sequence (P25708 21-464 limits assumed, other chains not shown): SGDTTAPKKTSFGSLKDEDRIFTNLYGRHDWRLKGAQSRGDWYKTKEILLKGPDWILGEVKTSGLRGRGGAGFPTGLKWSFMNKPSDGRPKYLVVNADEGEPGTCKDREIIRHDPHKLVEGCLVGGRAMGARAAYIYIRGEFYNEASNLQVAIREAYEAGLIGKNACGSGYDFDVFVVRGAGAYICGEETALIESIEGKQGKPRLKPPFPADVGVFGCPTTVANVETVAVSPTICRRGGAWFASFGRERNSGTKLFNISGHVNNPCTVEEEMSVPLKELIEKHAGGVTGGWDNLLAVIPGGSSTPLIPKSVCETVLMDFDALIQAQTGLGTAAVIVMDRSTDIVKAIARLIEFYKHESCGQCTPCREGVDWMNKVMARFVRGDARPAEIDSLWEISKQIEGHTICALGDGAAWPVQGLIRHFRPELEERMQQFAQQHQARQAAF

**Q.** `CCO[C@H]1[C@@H](O)[C@H](O)[C@@H](c2ccccc2)OC(=O)C[C@H]1OCC` was tested. Which IC50 did it give?
**A.** 4.4 µM

**Q.** With `CCO[C@H]1[C@@H](OC(C)=O)[C@H](OC(C)=O)[C@@H](c2ccccc2)OC(=O)C[C@H]1OCC` as the compound, how does the IC50 read?
**A.** 3.9 µM
